# Experimental data from patent US20050137183A1, “Method and pharmaceutical compositions for treating or inhibiting renal dysfunctions, diseases or disorders, particularly in diabetic patients” (Solvay Pharmaceuticals GmbH, priority 2003, published 2005).
# What was measured:
# Type in all cases: in vivo, rat
# [1] = system: rats with streptozotocin-induced diabetes; assay: Plasma concentrations of ET-1, bigET-1 and angiotensin-II in streptozotocin-induced diabetic rats; conditions: 30 mg/kg/day oral, 18 weeks
# Experimental: (§1) All experiments were conducted in accordance with guidelines for the care and use of laboratory animals. Diabetes was induced in rats by a single tail vein injection of streptozotocin (60 mg/kg b.wt.), without insulin treatment, as recently described in Horcher et al., “Renal endothelin system in diabetes: inhibition and endothelin-A antagonism.”, J. Cardiovasc. Pharmacol. 1998; 31: 492-495. Diabetes was confirmed in streptozotocin treated rats by determining serum glucose concentrations. Only those rats were included having plasma glucose concentrations of >15 mmol/l (hyperglycemic rats, diabetic rats). Three groups of rats were investigated with n 7 to 11 per group: • 1) non-diabetic rats control group; • 2) diabetic rats control group, vehicle treated; • 3) treated diabetic rats group: with test compound of formula I ((3S,2′R)-3-{1-[2′-(ethoxycarbonyl)-4′-phenylbutyl]-cyclopentane-1-carbonylamino}-2,3,4,5-tetrahydro-2-oxo-1H-1-benzazepine-1-acetic-acid), 30 mg/kg/day for 18 weeks.
# (§2) At baseline, serum glucose and blood pressure were similar in both diabetic groups. Compared to vehicle, the test compound of formula I had no effect on these parameters during the treatment period. After 18 weeks treatment, urinary protein and albumin excretion were measured. Protein excretion in the vehicle-treated group was about 18 mg/24 h; in the group which had received the compound of formula I it was about 4.8 mg/24 h (p=0.03 versus vehicle). Albumin excretion in the vehicle-group was about 0.5 mg/24 h, and in the which had received the compound of formula I it was about 0.1 mg/24 h (p=0.04). […] From the experiments it can be concluded that test compound of formula I decreases protein and albumin excretion in diabetic rats independent of blood pressure. From the results it may be concluded that the compounds of formula I exert a primary effect on end-organ disease.
# [2] = system: rats with streptozotocin-induced diabetes; assay: Glomerular filtration rate by endogenous creatinine clearance in streptozotocin-induced diabetic rats; conditions: 30 mg/kg/day oral, after 18 weeks of treatment
# Experimental: as §1
# Glomerular filtration rate was calculated by the endogeneous creatinine clearance. It was observed that administering a compound of formula I as defined above improved the overall glomerular filtration rate.
# [3] = system: rats with streptozotocin-induced diabetes; assay: Blood pressure (tail-cuff plethysmography), heart rate, body weight, glucose and side-effects in streptozotocin-induced diabetic rats
# Experimental: as §1
# The experiment performed according to the present invention over 18 weeks of treatment provided the following results which are detailed in Table I, and FIGS. 1 and 2. In the context of the present invention, the most important data to be considered are the mean blood pressure (BP; tail-cuff plethysmography), the protein and albumin excretion (mean values, standard deviations) in urine which was collected in metabolic cages over 24 h, and number (n) of animals in each group regarding non-diabetic controls, diabetic vehicle treated controls (=placebo) and test compound treated group.
# as §2
# [4] = 30 mg/kg/day oral, after 18 weeks of treatment
# [5] = 30 mg/kg/day oral, during the treatment period
smiles,measurement,setting,value
"CCOC(=O)[C@H](CCc1ccccc1)CC1(C(=O)N[C@H]2CCc3ccccc3N(CC(=O)O)C2=O)CCCC1 [test compound of formula I, (3S,2′R)-3-{1-[2′-(ethoxycarbonyl)-4′-phenylbutyl]-cyclopentane-1-carbonylamino}-2,3,4,5-tetrahydro-2-oxo-1H-1-benzazepine-1-acetic-acid]",Plasma concentration of ET-1 compared to vehicle,[1],unchanged
same,Plasma concentration of angiotensin-II compared to vehicle,[1],unchanged
same,Plasma concentration of bigET-1 compared to vehicle,[1],unchanged
same,"Glomerular Filtration Rate, final, mean value",[2],2.014 mL/min
same,"Blood Pressure, mean value","[3]; 30 mg/kg/day oral with food, after 18 weeks of treatment, tail-cuff",129 mmHg
same,Side-effects,"[3]; 30 mg/kg/day oral, 18 weeks",No side-effects
same,"Body Weight, mean value",[3]; [4],252.7 g
same,"Glucose, final, mean value",[3]; [4],560.33 mg/dL
same,"Heart Rate, mean value",[3]; [4],280 beats/min
same,Effect on blood pressure compared to vehicle,[3]; [5],no effect
same,Effect on serum glucose compared to vehicle,[3]; [5],no effect
